Measurements as given in publication PMC11110727, “Exploiting thiol-functionalized benzosiloxaboroles for achieving diverse substitution patterns – synthesis, characterization and biological evaluation of promising antibacterial agents” (RSC Medicinal Chemistry, 2024).
≈ marks a conversion by molar mass, not a printed value. Where two headings read alike, the source gives them in different places.

How the values were obtained:
S. marcescens ATCC 13880 = test: Antibacterial activity: MIC/MBC, MIC with PAβN, disc-diffusion; assay type: cell-based, Serratia marcescens; details: S. marcescens ATCC 13880; for MIC: Serratia marcescens, ATCC13880, read-out: MIC
Summary of the method: (§1)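 Read-outs are disc-diffusion zones, broth-microdilution MICs and bactericidal concentrations (MBC), following EUCAST and CLSI guidance. The efflux contribution was probed by rerunning MICs with 20 μg mL^−1 PAβN in MgSO4-supplemented (1 mM) Mueller–Hinton II broth, a ≥4-fold decrease being significant.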

[1] = test system: Human normal lung fibroblasts MRC-5; test: MTT-based viability (cytotoxicity) assay; details: for IC50: Homo sapiens, MRC5, 48 h
Summary of the method: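 MRC-5 pd30 human lung fibroblasts in supplemented MEME at 37 °C, 5% CO2; viability by MTT, absorbance 570 nm, triplicate, as percent of control cells. Selectivity index taken as IC50/MIC against S. aureus MRSA strains.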

[2] = test system: Staphylococcus aureus, MSSA and MRSA strains; test: Antibacterial activity against S. aureus strains (text summaries); assay type: cell-based; details: for MIC: Staphylococcus aureus; for Eagle effect (paradoxical growth) during MBC determination: S. aureus ATCC 6538P and five MRSA clinical strains
Protocol: (§2) Direct antimicrobial activity was determined against the following standard strains: (1) Gram-positive cocci: methicillin-sensitive Staphylococcus aureus ATCC 6538P (MSSA), methicillin-resistant S. aureus subsp. aureus ATCC 43300 (MRSA), S. epidermidis ATCC 12228, Enterococcus faecium ATCC 6057, E. faecalis ATCC 29212, Bacillus subtilis ATCC 6633; (2) Gram-negative bacteria from Enterobacteriales order: Klebsiella pneumoniae ATCC 13883, Escherichia coli ATCC 25922, Enterobacter cloacae DSM 6234, Proteus mirabilis ATCC 12453, Serratia marcescens ATCC 13880; (3) Gram-negative non-fermentative rods: Acinetobacter baumannii ATCC 19606, Pseudomonas aeruginosa ATCC 27853, Stenotrophomonas maltophilia ATCC 12714, S. maltophilia ATCC 13637, Burkholderia cepacia ATCC 25416, Bordetella bronchiseptica ATCC 4617; (4) yeasts: Candida albicans ATCC 90028, C. krusei ATCC 6258, C. parapsilosis ATCC 22019, C. tropicalis (Castellani) Berkhout ATCC 750, C. tropicalis IBA 171, C. guilliermondii IBA 155, and Saccharomyces cerevisiae ATCC 9763. Moreover, 5 clinical strains of methicillin-resistant S. aureus were also included: NMI 664 K, NMI 1576 K, NMI 1712 K, NMI 1991 K, and NMI 2541 K. All strains were stored at −80 °C. Prior to testing, each bacterial strain was subcultured twice on tryptic soy agar TSA (bioMerieux) medium and yeast strains on Sabouraud dextrose agar (bioMerieux) for 24–48 h at 30 °C to ensure viability. The antimicrobial activity was evaluated as previously described[26] by the disc-diffusion method and the MIC determination assays according to the EUCAST (ref. [71] and [72]) and CLSI (ref. [53] and [73]) recommendations. Assessment of bactericidal (MBC) and fungicidal (MFC) activities was performed according to the CLSI recommendations.[54,74] The following reference agents were used: fluconazole (in the case of fungi), linezolid (for Gram-positive bacteria), and nitrofurantoin (for Gram-negative rods). The new benzosiloxaboroles were dissolved in DMSO (Sigma).

S. aureus NMI 664 K MRSA = test: Antibacterial activity against clinical MRSA: MIC/MBC; assay type: cell-based; details: Staphylococcus aureus, NMI 664 K MRSA; for MIC: read-out: MIC
Protocol: as §2

[3] = test system: S. maltophilia ATCC 12714; test: Antibacterial activity: MIC/MBC, MIC with PAβN, disc-diffusion; assay type: cell-based, Stenotrophomonas maltophilia; details: S. maltophilia ATCC 12714; for MIC: Stenotrophomonas maltophilia, ATCC12714, read-out: MIC
Summary of the method: as §1

[4] = (-) = zone not observed, paper discs 9 mm
[5] = PAβN 20 μg mL^−1, MHB + 1 mM MgSO4
[6] = both MSSA and MRSA strains, read-out: MIC values against Staphylococcus aureus
[7] = read-out: MBC (first MBC where Eagle effect)
[8] = standard and five clinical MRSA strains (Table 4), read-out: MIC (MRSA)
[9] = read-out: second MBC (Eagle effect)

C[Si]1(C)OB(O)c2cc(F)c(SC3CC(=O)NC3=O)c(F)c21 (stereo not drawn) [Compound 12, 3-((5,7-Difluoro-3-hydroxy-1,1-dimethyl-1,3-dihydrobenzo[c][1,2,5]oxasilaborol-6-yl)thio)pyrrolidine-2,5-dione]
diameter of inhibition zone (S. marcescens ATCC 13880; [4]): 28 mm | -fold reduction of MIC in the presence of PAβN (S. marcescens ATCC 13880; [5]): 2 -fold | MIC (S. marcescens ATCC 13880): 200 µg/mL (≈ 583 µM) | viability of MRC-5 ([1]; 6.25 µg·mL−1, 48 h): 103.0±1.5 % of control ± SD | viability of MRC-5 ([1]; 12.5 µg·mL−1, 48 h): 104.4±1.9 % of control ± SD | viability of MRC-5 ([1]; 25 µg·mL−1, 48 h): 94.9±2.3 % of control ± SD | viability of MRC-5 ([1]; 50 µg·mL−1, 48 h): 86.1±6.9 % of control ± SD | viability of MRC-5 ([1]; 100 µg·mL−1, 48 h): 76.4±3.5 % of control ± SD | viability of MRC-5 ([1]; 200 µg·mL−1, 48 h): 46.9±2.7 % of control ± SD | viability of MRC-5 ([1]; 400 µg·mL−1, 48 h): 0.4±0.2 % of control ± SD | IC50 [1]: 167 µg/mL (≈ 488 µM) | MIC [2, 6]: 1.56 to 12.5 µg/mL (≈ 4.55 to 36.4 µM) | MBC (S. aureus NMI 664 K MRSA; [7]): 200 µg/mL (≈ 583 µM) | MIC (S. aureus NMI 664 K MRSA): 12.5 µg/mL (≈ 36.4 µM) | diameter of inhibition zone [3, 4]: 13 mm | -fold reduction of MIC in the presence of PAβN [3, 5]: 2 -fold | MIC [3]: 200 µg/mL (≈ 583 µM)

C[Si]1(C)OB(O)c2cc(F)c(SCCS(=O)(=O)c3ccccc3)c(F)c21 [Compound 20, 5,7-Difluoro-1,1-dimethyl-6-((2-(phenylsulfonyl)ethyl)thio)benzo[c][1,2,5]oxasilaborol-3(1H)-ol]
MIC (S. marcescens ATCC 13880): > 400 µg/mL | viability of MRC-5 ([1]; 6.25 µg·mL−1, 48 h): 101.2±1.7 % of control ± SD | viability of MRC-5 ([1]; 12.5 µg·mL−1, 48 h): 95.3±1.0 % of control ± SD | viability of MRC-5 ([1]; 25 µg·mL−1, 48 h): 93.5±2.1 % of control ± SD | viability of MRC-5 ([1]; 50 µg·mL−1, 48 h): 84.0±1.5 % of control ± SD | viability of MRC-5 ([1]; 100 µg·mL−1, 48 h): 68.5±4.9 % of control ± SD | viability of MRC-5 ([1]; 200 µg·mL−1, 48 h): 38.8±4.8 % of control ± SD | viability of MRC-5 ([1]; 400 µg·mL−1, 48 h): 3.4±0.9 % of control ± SD | IC50 [1]: 122 µg/mL (≈ 294 µM) | Eagle effect (paradoxical growth) during MBC determination [2]: Eagle effect | MIC [2, 6]: 1.56 to 12.5 µg/mL (≈ 3.77 to 30.2 µM) | MIC [2, 8]: 3.12 to 6.25 µg/mL (≈ 7.53 to 15.1 µM) | MBC (S. aureus NMI 664 K MRSA; [7]): 12.5 µg/mL (≈ 30.2 µM) | MIC (S. aureus NMI 664 K MRSA): 6.25 µg/mL (≈ 15.1 µM) | MBC (S. aureus NMI 664 K MRSA; [9]): 400 µg/mL (≈ 965 µM) | MIC [3]: > 400 µg/mL

CC(=O)CSc1ccc2c(c1F)[Si](C)(C)OB2O [Compound 22, 1-((7-Fluoro-3-hydroxy-1,1-dimethyl-1,3-dihydrobenzo[c][1,2,5]oxasilaborol-6-yl)thio)propan-2-one]
MIC (S. marcescens ATCC 13880): > 400 µg/mL | viability of MRC-5 ([1]; 6.25 µg·mL−1, 48 h): 92.1±0.1 % of control ± SD | viability of MRC-5 ([1]; 12.5 µg·mL−1, 48 h): 91.5±2.5 % of control ± SD | viability of MRC-5 ([1]; 25 µg·mL−1, 48 h): 85.2±1.1 % of control ± SD | viability of MRC-5 ([1]; 50 µg·mL−1, 48 h): 94.4±2.1 % of control ± SD | viability of MRC-5 ([1]; 100 µg·mL−1, 48 h): 78.4±4.5 % of control ± SD | viability of MRC-5 ([1]; 200 µg·mL−1, 48 h): 69.6±3.7 % of control ± SD | viability of MRC-5 ([1]; 400 µg·mL−1, 48 h): 41.4±0.4 % of control ± SD | IC50 [1]: > 200 µg/mL | MIC [2, 6]: 1.56 to 12.5 µg/mL (≈ 5.49 to 44 µM) | MIC [2, 8]: 3.12 to 6.25 µg/mL (≈ 11 to 22 µM) | MBC (S. aureus NMI 664 K MRSA; [7]): 200 µg/mL (≈ 704 µM) | MIC (S. aureus NMI 664 K MRSA): 6.25 µg/mL (≈ 22 µM) | MIC [3]: > 400 µg/mL

C[Si]1(C)OB(O)c2ccc(SCC(=O)c3ccccc3)c(F)c21 [Compound 23, 2-((7-Fluoro-3-hydroxy-1,1-dimethyl-1,3-dihydrobenzo[c][1,2,5]oxasilaborol-6-yl)thio)-1-phenylethan-1-one]
MIC (S. marcescens ATCC 13880): > 400 µg/mL | viability of MRC-5 ([1]; 6.25 µg·mL−1, 48 h): 99.3±8.4 % of control ± SD | viability of MRC-5 ([1]; 12.5 µg·mL−1, 48 h): 94.3±0.1 % of control ± SD | viability of MRC-5 ([1]; 25 µg·mL−1, 48 h): 83.3±4.4 % of control ± SD | viability of MRC-5 ([1]; 50 µg·mL−1, 48 h): 85.9±5.1 % of control ± SD | viability of MRC-5 ([1]; 100 µg·mL−1, 48 h): 64.2±3.6 % of control ± SD | viability of MRC-5 ([1]; 200 µg·mL−1, 48 h): 32.0±0.3 % of control ± SD | viability of MRC-5 ([1]; 400 µg·mL−1, 48 h): 1.0±1.3 % of control ± SD | IC50 [1]: 126 µg/mL (≈ 364 µM) | Eagle effect (paradoxical growth) during MBC determination [2]: Eagle effect | MIC [2, 6]: 1.56 to 12.5 µg/mL (≈ 4.51 to 36.1 µM) | MIC [2, 8]: 1.56 to 3.12 µg/mL (≈ 4.51 to 9.01 µM) | MBC (S. aureus NMI 664 K MRSA; [7]): 3.12 µg/mL (≈ 9.01 µM) | MIC (S. aureus NMI 664 K MRSA): 3.12 µg/mL (≈ 9.01 µM) | MBC (S. aureus NMI 664 K MRSA; [9]): 200 µg/mL (≈ 578 µM) | MIC [3]: > 400 µg/mL
